# From patent publication US11332503B2, “Peptides for treatment and prevention of hyperglycaemia” (UNIVERSITE DE STRASBOURG, priority 2017, dated 2022)
# Tested on: human adipocytes
# Assay: Glucose entry in human adipocytes after native or stapled peptide treatment (FIG. 4D-E)
# Format: cell-based
# Details: native peptide, absence of insulin
# Source text: FIG. 4: In vitro characterization of two peptides for their glucose absorption triggering capacity. • (A) Representative picture depicting the cellular entry assessment of the mixture of FAM-labelled stapled peptides A (SEQ ID No 9) and B (SEQ ID No 11) in human adipocytes. DIC: Differential interference contrast mode for living cell acquisition in left panel. In right panel, fluorescent detection of the FAM-labelled peptide with the labelled plasma membrane (PM). • (B) 3D images of the cellular uptake of PATAD peptides identified in FIG. 3; either peptide A (left panel) or peptide B (right panel) treated adipocyte showing the spots inside the peptide inside the adipocyte. • (C) Photographs showing absorption of 2-NBDG in absence of INS in adipocytes following treatment with a combination of the stapled peptides A and B. • (D) Quantification of intracellular glucose analogue 2-NB in absence of INS in adipocytes following the indicated peptide treatment (n=8 per group). • (E) Quantification of intracellular glucose analogue 2-NB in presence of INS in adipocytes following the indicated peptide treatment (n=8 per group). […]
# Mature adipocytes were cultured in 96 well plate. […] 24 hours later, the glucose absorption capacity if the treated cells were assessed using the Glucose Uptake Colorimetric Assay kit from Bio Vision (Catalog #: K676-100). […]
sequence,measurement,value
"SICKGLMTKHPAKRLGCGPEG (native or hydrocarbon-stapled; listed as Homo sapiens) [peptide B, PATAD peptide from human αPKC, tested native and stapled]",entry of glucose into the adipocyte,significant entry of glucose
